This experiment relates to P388 leukemia ip, CD2F1 mice, survival T/C. Description: NCI In Vivo Anticancer Drug Screen. Data for tumor model P388 Leukemia (intraperitoneal) in CD2F1 (CDF1) mice. The settings on record: endpoint: median survival time, higher = longer survival. The procedure, abridged: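 Mice carrying the transplanted tumor received test compound or vehicle. Survival was recorded in each group, and the value is the treated-group measurement divided by that of the vehicle-treated control group.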

Several values for one entry are separate records, joined by “and”; a condition that tells them apart may be missing. Identical values can stand only once. Inconclusive results and toxic doses are left out.

For the compound `COc1cc([C@@H]2c3cc4c(cc3[C@@H](OC3OC5COC(C)OC5C(O)C3O)[C@H]3COC(=O)[C@H]23)OCO4)cc(OC)c1O` (stereo partly specified), the T/C is 181 % of control (dose: 1.0 mg/kg/injection, schedule: Q01DX009 (ip), vehicle: saline); 183 % of control and 217 % of control (dose: 2.0 mg/kg/injection, schedule: Q01DX009 (ip), vehicle: saline); 153 % of control (dose: 4.0 mg/kg/injection, schedule: Q01DX001 (ip), vehicle: saline with Tween-80); 241 % of control and 300 % of control (dose: 4.0 mg/kg/injection, schedule: Q01DX009 (ip), vehicle: saline); 122 % of control (dose: 5.0 mg/kg/injection, schedule: Q04DX003 (ip), vehicle: saline with Tween-80); 177 % of control (dose: 6.24 mg/kg/injection, schedule: Q04DX003 (ip), vehicle: water). Besides, the T/C runs as follows: (dose: 6.48 mg/kg/injection, schedule: Q04DX003 (ip), vehicle: water) 178 % of control and 219 % of control; (dose: 7.78 mg/kg/injection, schedule: Q04DX003 (ip), vehicle: water) 212 % of control; (dose: 8.0 mg/kg/injection, schedule: Q01DX001 (ip), vehicle: saline with Tween-80) 164 % of control; (dose: 8.0 mg/kg/injection, schedule: Q01DX001 (ip), vehicle: saline) 180 % of control; (dose: 8.0 mg/kg/injection, schedule: Q01DX001 (ip), vehicle: water) 162 % of control and 168 % of control; (dose: 8.0 mg/kg/injection, schedule: Q08DX002 (ip), vehicle: saline) 207 % of control. Besides, the T/C runs as follows: (dose: 10.0 mg/kg/injection, schedule: Q04DX002 (ip), vehicle: suspension in saline) 162 % of control; (dose: 10.0 mg/kg/injection, schedule: Q04DX003 (ip), vehicle: saline with Tween-80) 174 % of control and 190 % of control; (dose: 10.4 mg/kg/injection, schedule: Q04DX003 (ip), vehicle: clinical formulation) 247 % of control; (dose: 10.4 mg/kg/injection, schedule: Q04DX003 (ip), vehicle: water) 213 % of control; (dose: 10.8 mg/kg/injection, schedule: Q04DX002 (ip), vehicle: water) 243 % of control; (dose: 10.8 mg/kg/injection, schedule: Q04DX003 (ip), vehicle: water) 211 % of control and 281 % of control. For the same compound, the T/C was 211 % of control (dose: 12.0 mg/kg/injection, schedule: Q04DX003 (ip), vehicle: saline); 240 % of control (dose: 13.0 mg/kg/injection, schedule: Q04DX002 (ip), vehicle: Klucel (hydroxypropylcellulose) (HPC)); 234 % of control (dose: 13.0 mg/kg/injection, schedule: Q04DX003 (ip), vehicle: water); 240 % of control (dose: 16.0 mg/kg/injection, schedule: Q08DX002 (ip), vehicle: saline); 276 % of control (dose: 17.3 mg/kg/injection, schedule: Q04DX003 (ip), vehicle: clinical formulation); 272 % of control (dose: 17.3 mg/kg/injection, schedule: Q04DX003 (ip), vehicle: water). For the same compound, the T/C is, setting by setting: (dose: 18.0 mg/kg/injection, schedule: Q04DX002 (ip), vehicle: water) 264 % of control; (dose: 18.0 mg/kg/injection, schedule: Q04DX003 (ip), vehicle: Klucel (hydroxypropylcellulose) (HPC)) 320 % of control and 576 % of control; (dose: 20.0 mg/kg/injection, schedule: Q04DX002 (ip), vehicle: suspension in saline) 167 % of control; (dose: 20.0 mg/kg/injection, schedule: Q04DX003 (ip), vehicle: saline with Tween-80) 183 % of control and 190 % of control; (dose: 21.6 mg/kg/injection, schedule: Q04DX002 (ip), vehicle: Klucel (hydroxypropylcellulose) (HPC)) 280 % of control; (dose: 21.6 mg/kg/injection, schedule: Q04DX002 (ip), vehicle: water) 235 % of control. In addition, the T/C by setting is: (dose: 21.6 mg/kg/injection, schedule: Q04DX003 (ip), vehicle: water) 398 % of control; (dose: 27.0 mg/kg/injection, schedule: Q04DX003 (ip), vehicle: Klucel (hydroxypropylcellulose) (HPC)) 436 % of control and 567 % of control; (dose: 28.8 mg/kg/injection, schedule: Q04DX003 (ip), vehicle: clinical formulation) 419 % of control; (dose: 28.8 mg/kg/injection, schedule: Q04DX003 (ip), vehicle: water) 304 % of control; (dose: 30.0 mg/kg/injection, schedule: Q04DX002 (ip), vehicle: water) 441 % of control; (dose: 30.0 mg/kg/injection, schedule: Q04DX003 (ip), vehicle: water) 333 % of control and 358 % of control. Also, the T/C reads like this: (dose: 32.0 mg/kg/injection, schedule: Q08DX002 (ip), vehicle: saline) 285 % of control; (dose: 36.0 mg/kg/injection, schedule: Q04DX002 (ip), vehicle: Klucel (hydroxypropylcellulose) (HPC)) 290 % of control; (dose: 36.0 mg/kg/injection, schedule: Q04DX002 (ip), vehicle: water) 445 % of control; (dose: 36.0 mg/kg/injection, schedule: Q04DX003 (ip), vehicle: water) 416 % of control; (dose: 40.0 mg/kg/injection, schedule: Q04DX002 (ip), vehicle: suspension in saline) 218 % of control; (dose: 40.0 mg/kg/injection, schedule: Q04DX003 (ip), vehicle: Klucel (hydroxypropylcellulose) (HPC)) 436 % of control and 576 % of control. Also, the T/C was 223 % of control and 257 % of control (dose: 40.0 mg/kg/injection, schedule: Q04DX003 (ip), vehicle: saline with Tween-80); 372 % of control (dose: 50.0 mg/kg/injection, schedule: Q04DX002 (ip), vehicle: water); 354 % of control (dose: 60.0 mg/kg/injection, schedule: Q04DX002 (ip), vehicle: water); 576 % of control (dose: 60.0 mg/kg/injection, schedule: Q04DX003 (ip), vehicle: Klucel (hydroxypropylcellulose) (HPC)); 416 % of control (dose: 60.0 mg/kg/injection, schedule: Q04DX003 (ip), vehicle: water); 105 % of control and 86 % of control and 88 % of control (dose: 64.0 mg/kg/injection, schedule: Q01DX005 (ip), vehicle: saline). In addition, the T/C was 247 % of control (dose: 64.0 mg/kg/injection, schedule: Q08DX002 (ip), vehicle: saline); 441 % of control (dose: 83.3 mg/kg/injection, schedule: Q04DX002 (ip), vehicle: water); 238 % of control and 329 % of control (dose: 96.0 mg/kg/injection, schedule: Q01DX001 (ip), vehicle: water); 89 % of control (dose: 100.0 mg/kg/injection, schedule: Q04DX002 (ip), vehicle: Klucel (hydroxypropylcellulose) (HPC)); 445 % of control (dose: 100.0 mg/kg/injection, schedule: Q04DX002 (ip), vehicle: water); 77 % of control and 89 % of control (dose: 128.0 mg/kg/injection, schedule: Q01DX001 (ip), vehicle: saline with Tween-80). The T/C (dose: 128.0 mg/kg/injection, schedule: Q08DX002 (ip), vehicle: saline) was 98 % of control.
`CN1C(=O)C2C(C(=O)O)C2N(C)C1=O` (stereo unspecified): the T/C (dose: 10.0 mg/kg/injection, schedule: Q04DX003 (ip), vehicle: saline) is 99 % of control; the T/C (dose: 100.0 mg/kg/injection, schedule: Q04DX003 (ip), vehicle: saline) was 99 % of control; the T/C (dose: 200.0 mg/kg/injection, schedule: Q04DX003 (ip), vehicle: saline) was 99 % of control and 101 % of control; the T/C (dose: 400.0 mg/kg/injection, schedule: Q04DX003 (ip), vehicle: saline) is 100 % of control and 101 % of control.
Take `COC(=O)n1c(=O)oc2ccc(Br)cc21`: the T/C is, setting by setting: (dose: 50.0 mg/kg/injection, schedule: Q01DX005 (ip), vehicle: Klucel (hydroxypropylcellulose) (HPC)) 104 % of control; (dose: 100.0 mg/kg/injection, schedule: Q01DX005 (ip), vehicle: Klucel (hydroxypropylcellulose) (HPC)) 106 % of control; (dose: 200.0 mg/kg/injection, schedule: Q01DX005 (ip), vehicle: Klucel (hydroxypropylcellulose) (HPC)) 102 % of control.
With `Cc1nc(Cl)c(C#N)nc1C`, the T/C by setting is: (dose: 50.0 mg/kg/injection, schedule: Q01DX009 (ip), vehicle: saline with Tween-80) 100 % of control; (dose: 50.0 mg/kg/injection, schedule: Q04DX003 (ip), vehicle: saline with Tween-80) 110 % of control; (dose: 100.0 mg/kg/injection, schedule: Q01DX009 (ip), vehicle: saline with Tween-80) 100 % of control; (dose: 100.0 mg/kg/injection, schedule: Q04DX003 (ip), vehicle: saline with Tween-80) 100 % of control; (dose: 200.0 mg/kg/injection, schedule: Q01DX009 (ip), vehicle: saline with Tween-80) 100 % of control; (dose: 200.0 mg/kg/injection, schedule: Q04DX003 (ip), vehicle: saline with Tween-80) 100 % of control.
As for `S=C(S)n1nc(-c2ccccc2)c(N=Nc2cccc(Cl)c2)c1-c1ccccc1`, the T/C was 91 % of control (dose: 100.0 mg/kg/injection, schedule: Q01DX001 (ip), vehicle: saline with Tween-80); 91 % of control (dose: 200.0 mg/kg/injection, schedule: Q01DX001 (ip), vehicle: saline with Tween-80); 113 % of control (dose: 400.0 mg/kg/injection, schedule: Q01DX001 (ip), vehicle: saline with Tween-80).

The values above are taken from PubChem BioAssay AID330 (DTP/NCI, 2004).
